Results as given in the supplement of paper PMC12076712.

What was measured:
Assay in all cases: pIC50, kinobeads binding competition
Settings in all cases: cell material: Jurkat lysate
[1] = target: T1, GAK (UniProt O14976)
T1 sequence (whole entry): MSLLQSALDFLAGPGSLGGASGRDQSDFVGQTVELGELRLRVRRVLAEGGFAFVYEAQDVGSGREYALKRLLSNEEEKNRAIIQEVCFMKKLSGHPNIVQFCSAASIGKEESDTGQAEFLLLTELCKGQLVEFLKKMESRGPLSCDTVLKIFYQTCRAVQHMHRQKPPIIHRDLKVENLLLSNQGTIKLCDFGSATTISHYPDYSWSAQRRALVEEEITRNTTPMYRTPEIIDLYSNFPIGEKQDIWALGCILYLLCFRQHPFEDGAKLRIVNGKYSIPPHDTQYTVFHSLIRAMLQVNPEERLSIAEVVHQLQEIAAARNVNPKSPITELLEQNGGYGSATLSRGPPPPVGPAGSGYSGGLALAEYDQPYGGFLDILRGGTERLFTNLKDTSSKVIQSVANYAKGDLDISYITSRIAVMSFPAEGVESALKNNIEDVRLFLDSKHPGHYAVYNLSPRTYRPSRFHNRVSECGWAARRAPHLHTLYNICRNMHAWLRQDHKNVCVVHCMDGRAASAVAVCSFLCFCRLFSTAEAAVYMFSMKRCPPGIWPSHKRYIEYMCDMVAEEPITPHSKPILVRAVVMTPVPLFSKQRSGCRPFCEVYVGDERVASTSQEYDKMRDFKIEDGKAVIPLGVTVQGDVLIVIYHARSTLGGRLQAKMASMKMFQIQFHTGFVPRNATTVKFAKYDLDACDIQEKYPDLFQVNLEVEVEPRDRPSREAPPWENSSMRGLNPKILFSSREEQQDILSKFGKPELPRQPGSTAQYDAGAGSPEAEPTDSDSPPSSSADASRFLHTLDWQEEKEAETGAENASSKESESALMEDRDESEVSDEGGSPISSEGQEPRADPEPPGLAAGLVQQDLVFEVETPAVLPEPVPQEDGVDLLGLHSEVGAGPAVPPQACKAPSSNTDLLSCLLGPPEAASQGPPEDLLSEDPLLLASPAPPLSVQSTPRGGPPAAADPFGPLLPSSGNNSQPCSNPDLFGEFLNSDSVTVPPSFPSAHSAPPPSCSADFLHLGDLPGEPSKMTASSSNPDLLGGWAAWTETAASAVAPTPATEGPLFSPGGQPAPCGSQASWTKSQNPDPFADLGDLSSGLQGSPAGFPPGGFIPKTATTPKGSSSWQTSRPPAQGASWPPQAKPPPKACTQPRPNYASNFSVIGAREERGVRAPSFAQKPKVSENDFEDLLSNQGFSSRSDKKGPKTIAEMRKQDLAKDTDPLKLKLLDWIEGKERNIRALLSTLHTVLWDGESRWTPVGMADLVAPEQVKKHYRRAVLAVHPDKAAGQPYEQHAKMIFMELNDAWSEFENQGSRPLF

[2] = target: T2, MERTK (UniProt Q12866)
T2 sequence (whole entry): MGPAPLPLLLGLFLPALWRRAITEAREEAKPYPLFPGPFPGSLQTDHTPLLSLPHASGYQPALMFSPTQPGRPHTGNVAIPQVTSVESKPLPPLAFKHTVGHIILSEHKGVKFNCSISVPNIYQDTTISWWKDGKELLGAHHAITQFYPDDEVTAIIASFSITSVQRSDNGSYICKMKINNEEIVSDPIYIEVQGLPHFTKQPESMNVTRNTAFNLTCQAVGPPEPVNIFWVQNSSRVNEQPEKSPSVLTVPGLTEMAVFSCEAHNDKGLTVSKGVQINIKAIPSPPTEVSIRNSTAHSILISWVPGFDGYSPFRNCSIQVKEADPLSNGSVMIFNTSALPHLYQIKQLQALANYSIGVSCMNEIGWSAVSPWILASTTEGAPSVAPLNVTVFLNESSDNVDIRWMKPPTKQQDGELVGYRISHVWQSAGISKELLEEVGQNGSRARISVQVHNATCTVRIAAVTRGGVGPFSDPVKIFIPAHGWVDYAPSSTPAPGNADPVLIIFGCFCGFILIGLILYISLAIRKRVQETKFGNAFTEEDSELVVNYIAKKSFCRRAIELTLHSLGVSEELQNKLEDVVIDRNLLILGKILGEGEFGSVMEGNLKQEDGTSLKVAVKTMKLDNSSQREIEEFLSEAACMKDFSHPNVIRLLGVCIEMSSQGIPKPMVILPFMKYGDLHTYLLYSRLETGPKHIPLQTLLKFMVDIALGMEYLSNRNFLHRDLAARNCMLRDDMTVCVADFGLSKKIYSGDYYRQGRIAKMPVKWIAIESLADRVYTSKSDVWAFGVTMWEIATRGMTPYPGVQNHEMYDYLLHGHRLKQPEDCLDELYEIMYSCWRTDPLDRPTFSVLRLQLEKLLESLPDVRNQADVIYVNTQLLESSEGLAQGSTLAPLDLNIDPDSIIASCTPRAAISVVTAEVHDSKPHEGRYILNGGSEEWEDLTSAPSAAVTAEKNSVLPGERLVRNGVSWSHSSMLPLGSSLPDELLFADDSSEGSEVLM

[3] = target: T3, UniProt P52564
T3 sequence (whole entry): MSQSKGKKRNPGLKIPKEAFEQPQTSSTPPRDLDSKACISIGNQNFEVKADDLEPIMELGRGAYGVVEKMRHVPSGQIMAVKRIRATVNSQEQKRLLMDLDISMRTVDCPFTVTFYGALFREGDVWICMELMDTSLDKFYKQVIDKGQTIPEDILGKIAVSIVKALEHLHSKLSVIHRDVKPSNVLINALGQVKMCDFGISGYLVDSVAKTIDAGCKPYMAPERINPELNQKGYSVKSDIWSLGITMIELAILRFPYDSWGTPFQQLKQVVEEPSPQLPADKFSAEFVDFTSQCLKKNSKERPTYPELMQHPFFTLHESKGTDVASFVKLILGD

[4] = target: UniProt Q5TCX8
Sequence of UniProt Q5TCX8 (Q5TCX8 whole entry): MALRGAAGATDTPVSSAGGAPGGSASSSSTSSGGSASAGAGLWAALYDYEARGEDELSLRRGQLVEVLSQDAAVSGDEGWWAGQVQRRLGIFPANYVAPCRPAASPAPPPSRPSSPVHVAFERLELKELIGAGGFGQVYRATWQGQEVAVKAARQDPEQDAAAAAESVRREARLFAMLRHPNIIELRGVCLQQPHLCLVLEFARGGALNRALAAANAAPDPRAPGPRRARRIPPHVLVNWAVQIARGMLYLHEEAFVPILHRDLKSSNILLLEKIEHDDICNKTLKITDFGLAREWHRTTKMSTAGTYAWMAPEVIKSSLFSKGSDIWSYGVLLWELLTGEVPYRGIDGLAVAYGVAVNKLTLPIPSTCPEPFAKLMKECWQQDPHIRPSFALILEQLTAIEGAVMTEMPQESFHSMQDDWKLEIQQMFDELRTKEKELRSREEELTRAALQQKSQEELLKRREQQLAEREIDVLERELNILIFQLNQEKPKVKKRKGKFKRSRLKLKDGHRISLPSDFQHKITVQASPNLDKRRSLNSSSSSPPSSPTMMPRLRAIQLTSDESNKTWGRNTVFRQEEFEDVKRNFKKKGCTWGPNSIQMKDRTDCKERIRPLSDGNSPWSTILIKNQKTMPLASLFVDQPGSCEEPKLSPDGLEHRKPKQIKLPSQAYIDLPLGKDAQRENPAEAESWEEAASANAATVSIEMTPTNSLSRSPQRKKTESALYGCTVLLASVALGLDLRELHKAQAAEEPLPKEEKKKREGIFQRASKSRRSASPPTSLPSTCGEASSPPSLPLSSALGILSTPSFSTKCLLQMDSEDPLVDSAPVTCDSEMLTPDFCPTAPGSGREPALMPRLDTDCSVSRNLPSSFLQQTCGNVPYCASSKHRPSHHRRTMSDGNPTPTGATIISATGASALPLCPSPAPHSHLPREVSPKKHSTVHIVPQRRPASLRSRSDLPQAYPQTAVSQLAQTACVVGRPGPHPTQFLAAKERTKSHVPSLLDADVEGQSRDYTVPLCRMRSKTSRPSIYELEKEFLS

[5] = target: T4, UniProt Q9UEE5
T4 sequence (whole entry): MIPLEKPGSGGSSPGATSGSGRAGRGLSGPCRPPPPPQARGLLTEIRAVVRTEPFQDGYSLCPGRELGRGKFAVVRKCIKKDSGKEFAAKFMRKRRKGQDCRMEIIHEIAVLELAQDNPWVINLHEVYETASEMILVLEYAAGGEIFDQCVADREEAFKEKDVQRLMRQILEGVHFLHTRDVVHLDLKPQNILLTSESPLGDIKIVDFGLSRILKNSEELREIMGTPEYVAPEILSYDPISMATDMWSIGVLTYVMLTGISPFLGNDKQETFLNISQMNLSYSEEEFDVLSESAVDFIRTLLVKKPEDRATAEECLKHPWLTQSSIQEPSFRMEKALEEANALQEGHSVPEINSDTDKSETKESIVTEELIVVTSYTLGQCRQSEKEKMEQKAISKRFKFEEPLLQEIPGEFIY

- pIC50 [1]: < 4.52
- pIC50 [2]: < 4.52
- pIC50 [3]: < 4.52
- pIC50 [4]: < 4.52
- pIC50 [5]: < 4.52
Structure (SMILES): CCc1cnn2c(NCc3ccc[n+]([O-])c3)cc(N3CCCC[C@H]3CCO)nc12 [dinaciclib]
